This is an account of results in patent US9670261B2 (Sanofi, priority 2012, dated 2017).

*1 amine or outer side, *2 acyl side, *3 side chain or, on linkers, in order; H or OH if unused. Where a SMILES comes first, the peptide text is derived from it. Side-chain parts run from the residue outwards. [ ]: non-standard residue; d: D form. The star is where a group is joined. γGlu = O=C(O)[C@H](CCC(=O)[*:2])N[*:1]; Palmitoyl = CCCCCCCCCCCCCCCC(=O)*; Aib = CC(C)(N)C(=O)O

A word on the EC50: it is the midpoint of the concentration-response curve. The Cmax is the peak of the concentration-time curve. As usually defined, the half-life is the time needed for the level to fall by half in the phase considered. High values mean slow loss, low ones fast loss. A word on the solubility: it is the concentration that dissolves in the medium under given conditions.

One series concerns the target T1, human GLP-1 receptor (Homo sapiens, UniProt P43220).
T1 construct: expressed in transfected cells
The series is described as follows: cAMP response (HTRF) of HEK-293 cells stably expressing human GLP-1 receptor. The class given is cell-based. The settings on record: Table 7; cAMP formation; read-out: EC50 hGLP-1 R. Summed up:
(§1)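 HEK-293 cells stably expressing the receptor were resuspended at 400000 cells/ml in HBSS/20 mM HEPES/0.1% BSA buffer with 2 mM IBMX. Cells were stimulated with compound for 30 min at room temperature. Intracellular cAMP was measured by HTRF.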
For orientation: Time-resolved FRET reads energy transfer from a long-lived donor to a nearby acceptor.

The next series addresses T2, human GIP receptor (Homo sapiens, UniProt P48546).
T2 construct: expressed in transfected cells
T2 sequence (P48546 22-466): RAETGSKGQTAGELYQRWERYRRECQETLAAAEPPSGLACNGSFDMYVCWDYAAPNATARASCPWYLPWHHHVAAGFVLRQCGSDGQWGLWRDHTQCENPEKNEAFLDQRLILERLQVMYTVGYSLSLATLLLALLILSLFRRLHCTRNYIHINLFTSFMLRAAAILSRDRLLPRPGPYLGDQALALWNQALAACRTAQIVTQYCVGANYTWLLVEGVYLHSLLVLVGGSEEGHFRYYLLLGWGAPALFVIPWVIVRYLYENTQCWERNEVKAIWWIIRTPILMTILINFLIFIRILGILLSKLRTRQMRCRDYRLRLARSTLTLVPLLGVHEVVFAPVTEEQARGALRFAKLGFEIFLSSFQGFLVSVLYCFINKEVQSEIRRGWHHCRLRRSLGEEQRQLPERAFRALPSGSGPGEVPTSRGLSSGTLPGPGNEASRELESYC
Put plainly: cAMP response (HTRF) of HEK-293 cells stably expressing human GIP receptor. The class given is cell-based. The following applies: Table 7; cAMP formation; read-out: EC50 hGIP R. Summed up:
as §1

Series [1] can be described thus: Pharmacokinetic testing in Göttinger minipigs, s.c. The following applies: female, minipig, plasma, sc, Mini pigs, 0.1 mg/kg s.c. The class given is in vivo.
Procedure: Female Göttinger minipigs were dosed 0.1 mg/kg subcutaneously (s.c.). Blood samples were collected after 0.25, 0.5, 1, 2, 4, 8, 24, 32, 48, 56 and 72 hours post application. Plasma samples were analyzed after protein precipitation via liquid chromatography mass spectrometry (LC/MS). PK parameters and half-life were calculated using WinonLin Version 5.2.1 (non-compartment model).
In the next series the test system is female NMRI-mice. Put plainly: Gastric emptying and intestinal passage in mice. In kind it is in vivo. The following applies: versus vehicle control. On the procedure: Female NMRI-mice of a body weight between 20 and 30 g were used. Mice were adapted to housing conditions for at least one week. Mice were overnight fasted, while water remained available all the time. On the study day, mice were weighed, single-caged and allowed access to 500 mg of feed for 30 min, while water was removed. At the end of the […], remaining feed was removed and weighed. Then, the test compound/reference compound or its vehicle in the control group was administered subcutaneously. 60 min later, to allow the compound to reach relevant plasma exposure, a coloured, non-caloric bolus was instilled via gavage into the stomach. After another 30 min, the animals were sacrificed and the stomach and the small intestine prepared. The filled stomach was weighed, emptied, carefully cleaned and dried and reweighed. The stomach content, calculated as weight of filled subtracted by the weight of emptied stomach, indicated the degree of gastric emptying. The small intestine was straightened without force and measured in length. Then the distance from the gastric beginning of the gut to the tip of the farthest traveled intestinal content bolus was measured. The intestinal passage was given as ratio in percent of the latter distance and the total length of the small intestine. […] Statistical analyses were performed with Everstat 6.0 by 1-way-ANOVA, followed by Dunnett's as post-hoc test. Dunnett's Test was applied to compare versus vehicle control. Differences were considered statistically significant at the p<0.05 level.

In series [2] the test system is female diet-induced obese (DIO) C57BL/6NCrl mice. The series is described as follows: Body weight in DIO mice, 14 weeks of prefeeding with high-fat diet (method 2). The class given is in vivo. Here is the method:
Female C57BL/6NCrl mice were housed in groups in a specific pathogen-free barrier facility on a 12 h light/dark cycle with free access to water and high-fat diet. After 14 weeks on high-fat diet, mice were stratified to treatment groups (n=8), so that each group had similar mean body weight.
An aged-matched group with ad libitum access to standard chow and water was included as standard control group.
Before the experiment, mice were subcutaneously (s.c.) injected with vehicle solution and weighed for 3 days to acclimate them to the procedures.
Body weight was recorded daily.
Statistical analyses were performed with Everstat 6.0 by repeated measures two-way ANOVA and Dunnett's post-hoc analyses (glucose profile) and 1-way-ANOVA, followed by Dunnett's post-hoc test (body weight, body fat). Differences versus vehicle-treated DIO control mice were considered statistically significant at the p<0.05 level.
Female obese C57BL/6NCrl mice were treated for 3 weeks once daily subcutaneously in the late afternoon, prior the end of the light phase (12 h lights on) with 10 μg/kg SEQ ID NO: 9 and SEQ ID NO: 21 or vehicle. Body weight was recorded daily.

Series [3] in a line: Pharmacokinetic testing in mice, s.c. The settings on record: mouse, plasma, sc, 1 mg/kg.
Procedure: Mice were dosed 1 mg/kg subcutaneously (s.c.). The mice were sacrified and blood samples were collected after 0.25, 0.5, 1, 2, 4, 8, 16 and 24 hours post application. Plasma samples were analyzed after protein precipitation via liquid chromatography mass spectrometry (LC/MS). PK parameters and half-life were calculated using WinonLin Version 5.2.1 (non-compartment model).
A short description of series [4]: Solubility testing in buffer (HPLC-UV). The following applies: buffer.

T1 sequence (P43220 24-463): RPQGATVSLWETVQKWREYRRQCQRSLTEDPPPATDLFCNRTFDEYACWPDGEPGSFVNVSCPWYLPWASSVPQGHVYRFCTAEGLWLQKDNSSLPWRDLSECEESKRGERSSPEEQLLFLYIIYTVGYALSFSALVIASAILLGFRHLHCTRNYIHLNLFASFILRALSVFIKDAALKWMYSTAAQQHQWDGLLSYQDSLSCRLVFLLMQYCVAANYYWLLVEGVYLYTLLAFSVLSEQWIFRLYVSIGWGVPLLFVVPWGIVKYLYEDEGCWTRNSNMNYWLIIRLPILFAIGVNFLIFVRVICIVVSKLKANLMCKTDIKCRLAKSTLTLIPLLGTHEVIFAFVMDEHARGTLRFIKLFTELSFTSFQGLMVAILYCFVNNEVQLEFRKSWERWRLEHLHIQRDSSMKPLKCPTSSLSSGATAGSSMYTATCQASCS

Consider `CCCCCCCCCCCCCCCC(=O)N[C@@H](CCC(=O)NCCCC[C@H](NC(=O)[C@H](CCC(N)=O)NC(=O)[C@@H](NC(=O)[C@H](CO)NC(=O)[C@H](CC(C)C)NC(=O)[C@H](CC(=O)O)NC(=O)[C@H](CO)NC(=O)[C@@H](NC(=O)[C@H](Cc1ccccc1)NC(=O)[C@@H](NC(=O)CNC(=O)[C@H](CCC(=O)O)NC(=O)C(C)(C)NC(=O)[C@@H](N)Cc1ccc(O)cc1)[C@@H](C)O)[C@@H](C)O)[C@@H](C)CC)C(=O)N[C@@H](CCC(=O)O)C(=O)N[C@@H](CCCCN)C(=O)N[C@@H](CCCNC(=N)N)C(=O)N[C@@H](C)C(=O)N[C@@H](C)C(=O)NC(C)(C)C(=O)N[C@@H](CCC(=O)O)C(=O)N[C@@H](Cc1ccccc1)C(=O)N[C@H](C(=O)N[C@@H](CCC(=O)O)C(=O)N[C@@H](Cc1c[nH]c2ccccc12)C(=O)N[C@@H](CC(C)C)C(=O)N[C@@H](CCCCN)C(=O)N[C@@H](CC(N)=O)C(=O)N[C@H](C(=O)NCC(=O)N1CCC[C@H]1C(=O)N[C@@H](CO)C(=O)N[C@@H](CO)C(=O)NCC(=O)N[C@@H](C)C(=O)N1CCC[C@H]1C(=O)N1CCC[C@H]1C(=O)N1CCC[C@H]1C(=O)N[C@@H](CO)C(N)=O)[C@@H](C)O)[C@@H](C)CC)C(=O)O` [SEQ ID NO: 9, Y-Aib-E-G-T-F-T-S-D-L-S-I-Q-K(γE-x53)-E-K-R-A-A-Aib-E-F-I-E-W-L-K-N-T-G-P-S-S-G-A-P-P-P-S-NH2] (H-Y[Aib]EGTFTSDLSIQK([γGlu-Palmitoyl])EKRAA[Aib]EFIEWLKNTGPSSGAPPPS-NH2), for which the EC50 is 3.6 pM at human GLP-1 receptor and 5.7 pM on human GIP receptor. Moreover, the Cmax in series [1] was 278 ng/mL; in series [3], 5470 ng/mL. Also, the half-life was 12.2 h in series [1] and 4.1 h in series [3]. The results for the “increase of remaining gastric contents” value in the series on female NMRI-mice (1 μg/kg s.c.), with female NMRI-mice (3 μg/kg s.c.) and with female NMRI-mice (10 μg/kg s.c.) were 32%, 79% and 111%, respectively. Also, the “reduction of intestinal passage” value with female NMRI-mice (1 μg/kg s.c.) worked out at 49%; in the series with female NMRI-mice (3 μg/kg s.c.) it was 62%; in the series with female NMRI-mice (10 μg/kg s.c.), 64%. In series [2] (10 μg/kg s.c. once daily, 3 weeks), the “decrease of body weight, relative change from baseline” value is “up to 15.1%”. Besides, in series [2] (10 μg/kg, 3-week treatment, mean ± SEM), the Overall weight change was -6.2 ± 0.4 g. In addition, the solubility at 2 h in series [4] (pH 4.5) and in series [4] (pH 7.4) was greater than 1000 µg/mL in each case.
